Assay results from patent US9833497B2, “Human originated EGF domain proteins and use of the same” (CHENGDU SOURCEBIO LIMITED-LIABILITY COMPANY, priority 2013, dated 2017).

What was measured:
Type in all cases: cell-based
[1] = test system: E. coli BL21; experiment: MIC against Gram-negative bacteria: E. coli BL21
Method in brief: (§1)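 Antibacterial activity of purified human EGF domain proteins: two-fold concentration series, triplicate wells, LB broth, 5×10^5 CFU/mL bacteria, 37° C shaking incubation. The lowest concentration without growth defines the MIC.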

[2] = test system: Proteus mirabilis; experiment: MIC against Gram-negative bacteria: Proteus mirabilis; conditions: for MIC against P. mirabilis: Proteus mirabilis
Method in brief: as §1

[3] = test system: Citrobacter diversus; experiment: MIC against Gram-negative bacteria: Citrobacter diversus; conditions: for MIC against C. diversus: Citrobacter diversus
Method in brief: as §1

[4] = test system: Klebsiella pneumonia; experiment: MIC against Gram-negative bacteria: Klebsiella pneumonia; conditions: for MIC against K. pneumonia: Klebsiella pneumonia
Method in brief: as §1

[5] = test system: Aeromonas hydrophila; experiment: MIC against Gram-negative bacteria: Aeromonas hydrophila; conditions: for MIC against A. hydrophila: Aeromonas hydrophila
Method in brief: as §1

[6] = test system: Moraxella catarrhalis; experiment: MIC against Gram-negative bacteria: Moraxella catarrhalis; conditions: for MIC against M. catarrhalis: Moraxella catarrhalis
Method in brief: as §1

[7] = test system: Pseudomonas aeruginosa; experiment: MIC against Gram-negative bacteria: Pseudomonas aeruginosa; conditions: for MIC against P. aeruginosa: Pseudomonas aeruginosa
Method in brief: as §1

[8] = test system: Proteus vulgaris; experiment: MIC against Gram-negative bacteria: Proteus vulgaris; conditions: for MIC against P. vulgaris: Proteus vulgaris
Method in brief: as §1

[9] = test system: Enterobacter cloacae; experiment: MIC against Gram-negative bacteria: Enterobacter cloacae; conditions: for MIC against E. cloacae: Enterobacter cloacae
Method in brief: as §1

[10] = test system: Serratia marcescens; experiment: MIC against Gram-negative bacteria: Serratia marcescens; conditions: for MIC against S. marcescens: Serratia marcescens
Method in brief: as §1

[11] = test system: E. coli DH5α; experiment: Antibacterial activity: MIC and growth curve against E. coli DH5α in 96-well plate; conditions: minimal inhibitory concentration against E. coli DH5α; 96-well plate, 5×10^5 CFU/mL, 37° C., judged after 8 h
Method in brief: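 MIC taken as lowest protein level with no bacterial growth, tracked by A600 every 30 min during 37 °C, 175 rpm culture. Two-fold protein series 50-12.5 μg/mL final, triplicate wells, against 5×10^5 CFU/mL of LB-washed mid-log cells.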

[12] = E. coli BL21, 96-well plate, 5×10^5 CFU/mL, 37° C., 10 h
[13] = 96-well plate, 5×10^5 CFU/mL, 37° C., 10 h
[14] = 5×10^5 CFU/mL, 10 h cultivation at 37° C.
[15] = 10 h cultivation at 37° C., 5×10^5 CFU/mL, two-fold serial dilution

Substance: PRT1252 (CPLTCDDISGQVTCPPDWPCGSPGCWCPEGQVLGSEGWCV; listed as Homo sapiens)
- MIC against E. coli BL21 [1, 12]: 50 µg/mL
- MIC against P. mirabilis [2, 13]: 50 µg/mL
- MIC against C. diversus [3, 13]: 12.5 µg/mL
- MIC against K. pneumonia [4, 13]: 12.5 µg/mL
- MIC against A. hydrophila [5, 13]: 50 µg/mL
- MIC against M. catarrhalis [6, 13]: 25 µg/mL
- MIC against P. aeruginosa [7, 13]: 25 µg/mL
- MIC against P. vulgaris [8, 13]: 25 µg/mL
- MIC against E. cloacae [9, 13]: 25 µg/mL
- MIC against S. marcescens [10, 13]: 12.5 µg/mL
- MIC [11]: 12.5 µg/mL

Substance: PRT1322 (PIDPCRAGNGGCHGLATCRAVGGGQRVCTCPPGFGGDGFS; listed as Homo sapiens)
- MIC against E. coli BL21 [1, 12]: 25 µg/mL
- MIC against P. mirabilis [2, 13]: 12.5 µg/mL
- MIC against C. diversus [3, 13]: 50 µg/mL
- MIC against K. pneumonia [4, 13]: 25 µg/mL
- MIC against A. hydrophila [5, 13]: 12.5 µg/mL
- MIC against M. catarrhalis [6, 13]: 12.5 µg/mL
- MIC against P. aeruginosa [7, 13]: 12.5 µg/mL
- MIC against P. vulgaris [8, 13]: 25 µg/mL
- MIC against E. cloacae [9, 13]: 50 µg/mL
- MIC against S. marcescens [10, 13]: 12.5 µg/mL
- MIC [11]: 12.5 µg/mL

Substance: PRT608 (CDCNGRSQECYFDPELYRSTGHGGHCTNCQDNTDGAHCERCRENFFRLGNNEACSS; listed as Homo sapiens)
- MIC E. coli BL21 [1, 13]: 50 µg/mL
- MIC P. mirabilis [2, 13]: 25 µg/mL
- MIC C. diversus [3, 13]: 25 µg/mL
- MIC K. pneumonia [4, 13]: 50 µg/mL
- MIC A. hydrophila [5, 13]: 12.5 µg/mL
- MIC M. catarrhalis [6, 13]: 50 µg/mL
- MIC P. aeruginosa [7, 13]: 12.5 µg/mL
- MIC P. vulgaris [8, 13]: 12.5 µg/mL
- MIC E. cloacae [9, 13]: 25 µg/mL
- MIC S. marcescens [10, 13]: 25 µg/mL
- MIC [11]: 12.5 µg/mL

Substance: PRT782 (AERCDCSHADGCHPTTGHCRCLPGWSGVHCD; listed as Homo sapiens)
- MIC (μg/mL) E. coli BL21 ([1]; E. coli BL21, 10 h cultivation at 37° C., 5×10^5 CFU/mL): 25 µg/mL
- MIC (μg/mL) P. mirabilis ([2]; P. mirabilis, 10 h cultivation at 37° C., 5×10^5 CFU/mL): 25 µg/mL
- MIC (μg/mL) C. diversus ([3]; C. diversus, 10 h cultivation at 37° C., 5×10^5 CFU/mL): 12.5 µg/mL
- MIC (μg/mL) K. pneumonia ([4]; K. pneumonia, 10 h cultivation at 37° C., 5×10^5 CFU/mL): 12.5 µg/mL
- MIC (μg/mL) A. hydrophila ([5]; A. hydrophila, 10 h cultivation at 37° C., 5×10^5 CFU/mL): 12.5 µg/mL
- MIC (μg/mL) M. catarrhalis ([6]; M. catarrhalis, 10 h cultivation at 37° C., 5×10^5 CFU/mL): 12.5 µg/mL
- MIC (μg/mL) P. aeruginosa ([7]; P. aeruginosa, 10 h cultivation at 37° C., 5×10^5 CFU/mL): 12.5 µg/mL
- MIC (μg/mL) P. vulgaris ([8]; P. vulgaris, 10 h cultivation at 37° C., 5×10^5 CFU/mL): 12.5 µg/mL
- MIC (μg/mL) E. cloacae ([9]; E. cloacae, 10 h cultivation at 37° C., 5×10^5 CFU/mL): 12.5 µg/mL
- MIC (μg/mL) S. marcescens ([10]; S. marcescens, 10 h cultivation at 37° C., 5×10^5 CFU/mL): 50 µg/mL
- MIC [11]: 50 µg/mL

Substance: PRT932 (QVNECLSNPCIHGNCTGGLSGYKCLCDAGWVGINCE; listed as Homo sapiens)
- MIC ([1]; E. coli BL21, 10 h cultivation at 37° C.): 50 µg/mL
- MIC ([2]; P. mirabilis, 10 h cultivation at 37° C.): 25 µg/mL
- MIC ([3]; C. diversus, 10 h cultivation at 37° C.): 25 µg/mL
- MIC ([4]; K. pneumonia, 10 h cultivation at 37° C.): 12.5 µg/mL
- MIC ([5]; A. hydrophila, 10 h cultivation at 37° C.): 12.5 µg/mL
- MIC ([6]; M. catarrhalis, 10 h cultivation at 37° C.): 12.5 µg/mL
- MIC ([7]; P. aeruginosa, 10 h cultivation at 37° C.): 12.5 µg/mL
- MIC ([8]; P. vulgaris, 10 h cultivation at 37° C.): 12.5 µg/mL
- MIC ([9]; E. cloacae, 10 h cultivation at 37° C.): 25 µg/mL
- MIC ([10]; S. marcescens, 10 h cultivation at 37° C.): 12.5 µg/mL
- MIC [11]: 25 µg/mL

Substance: PRT1432 (PARTCHSPAHSPCHIHAHCLFERNGAVSCQCNVGWAGNGNVCG; listed as Homo sapiens)
- MIC against E. coli BL21 ([1]; E. coli BL21, 5×10^5 CFU/mL, 10 h cultivation at 37° C.): 12.5 µg/mL
- MIC against P. mirabilis [2, 14]: 50 µg/mL
- MIC against C. diversus [3, 14]: 12.5 µg/mL
- MIC against K. pneumonia [4, 14]: 12.5 µg/mL
- MIC against A. hydrophila [5, 14]: 25 µg/mL
- MIC against M. catarrhalis [6, 14]: 25 µg/mL
- MIC against P. aeruginosa [7, 14]: 50 µg/mL
- MIC against P. vulgaris [8, 14]: 25 µg/mL
- MIC against E. cloacae [9, 14]: 50 µg/mL
- MIC against S. marcescens [10, 14]: 12.5 µg/mL
- MIC [11]: 25 µg/mL

Substance: PRT1044 (FGQDCAETCDCAPDARCFPANGACLCEHGFTGDRCT; listed as Homo sapiens)
- MIC E. coli BL21 [1, 15]: 50 µg/mL
- MIC P. mirabilis [2, 15]: 12.5 µg/mL
- MIC C. diversus [3, 15]: 50 µg/mL
- MIC K. pneumonia [4, 15]: 12.5 µg/mL
- MIC A. hydrophila [5, 15]: 50 µg/mL
- MIC M. catarrhalis [6, 15]: 25 µg/mL
- MIC P. aeruginosa [7, 15]: 50 µg/mL
- MIC P. vulgaris [8, 15]: 25 µg/mL
- MIC E. cloacae [9, 15]: 50 µg/mL
- MIC S. marcescens [10, 15]: 50 µg/mL
- MIC [11]: 100 µg/mL
